Reference: patent US20250206729A1, “DUAL RAF AND TUBULIN INHIBITORS AND METHODS OF USE THEREOF” (Deciphera Pharmaceuticals, LLC, priority 2023, published 2025)
Read-outs that look alike come from different tables or passages of the source.

What was measured:
[1] = target: T1, B-Raf kinase (SEQ ID NO: 1) (Homo sapiens, UniProt P15056); test: Biochemical assay for B-Raf (coupled pyruvate kinase/lactate dehydrogenase)
T1 construct: GST (N); purchased Sigma

[2] = target: T2, C-Raf kinase (SEQ ID NO: 2) (Homo sapiens, UniProt P04049, Y340D/Y341D); test: Biochemical assay for C-Raf (coupled pyruvate kinase/lactate dehydrogenase)
T2 construct: C-Raf residues 306-end; Y340D, Y341D with N-; GST (N); purchased Sigma

MiaPaca-2 cells = test: MiaPaca-2 cell proliferation assay; assay type: cell-based; conditions: Homo sapiens, MIA PaCa-2
HCT-116 cells = test: HCT-116 cell proliferation assay; assay type: cell-based; conditions: Homo sapiens
HPAF-II cells = test: HPAF-II cell proliferation assay; assay type: cell-based; conditions: Homo sapiens
Pa16c cells = test: Pa16c cell proliferation assay; assay type: cell-based; conditions: 67 to 72 h incubation, resazurin; read-out: Pa16c (inhibition of cell proliferation, IC50)
[3] = test system: tubulin polymerization in HCT-116 cells; test: Cellular tubulin polymerization assay (HCT-116 cells); assay type: cell-based; conditions: HCT-116 cells, read-out: Tubulin Cellular
Procedure: HCT-116 cells (catalog #CCL-247) are obtained from the American Type Culture Collect (ATCC, Manassas, VA). Briefly, cells are grown in McCoy's 5A supplemented with 10% characterized fetal bovine serum (Invitrogen, Carlsbad, CA) and 1% Penicillin/Streptomycin/L-Glutamine at 37° C., 5% CO2, and 95% humidity. Cells are expanded until reaching 70-95% confluency at which point they are sub-cultured or harvested for assay use. 450000 cells are added per well in 1500 μL complete growth medium in a tissue culture treated, 12-well plate. Plates are incubated for 18 to 24 h at 37° C., 5% CO2, and 95% humidity. At the end of the incubation, 2000 μL of base culture media is added to each well, followed by a serial dilution of compound. Plates are incubated for an additional 1 h at 37° C., 5% CO2, and 95% humidity. Lysates are generated by the addition of 100 μL Lysis and Microtubule Stabilization Buffer 1 (LMSO1, Cytoskeleton Inc, Denver, CO) supplemented with GTP (BST06, Cytoskeleton Inc), ATP (BSA04, Cytoskeleton Inc), and Protease Inhibitor Cocktail Stock (PIC02, Cytoskeleton Inc). Cells are scraped off wells using a rubber cell scraper and collected in a clean 96-well plate. Lysates are centrifuged at 1000× g, 37° C. for 10 min and supernatant fraction is placed into an additional 96-well plate. The remaining pellet fraction is reconstituted in 100 μL LMS01 buffer and sonicated for 10 min. Pellet and Supernatant fractions are probed for α-tubulin via western blot analysis on the Jess System or equivalent (Bio-techne, Minneapolis, MN). Data is analyzed using Prism software (Graphpad, San Diego, CA) to calculate IC50 values.

[4] = 1 mM ATP, read-out: BRAF (inhibition of biochemical activity, IC50)
[5] = 1 mM ATP, read-out: CRAF (inhibition of biochemical activity, IC50)
[6] = 67-72 h incubation, resazurin, read-out: MiaPaca-2 (inhibition of cell proliferation, IC50)
[7] = Table 3, mutant KRAS pancreatic cancer cell line, anti-proliferative, read-out: MiaPaca-2
[8] = HCT-116, 67 to 72 h incubation, resazurin, read-out: HCT-116 (inhibition of cell proliferation, IC50)
[9] = Table 3, mutant KRAS colorectal cancer cell line, anti-proliferative, read-out: HCT-116
[10] = HPAF-II, 115 to 120 h incubation, resazurin, read-out: HPAF-II (inhibition of cell proliferation, IC50)
[11] = Table 3, mutant KRAS pancreatic cancer cell line, anti-proliferative, read-out: HPAF-II
[12] = Table 4, mutant KRAS pancreatic cancer cell line, anti-proliferative, read-out: MiaPaca-2
[13] = Table 4, mutant KRAS colorectal cancer cell line, anti-proliferative, read-out: HCT-116
[14] = Table 4, mutant KRAS pancreatic cancer cell line, anti-proliferative, read-out: HPAF-II

T1 sequence (P15056 416-766): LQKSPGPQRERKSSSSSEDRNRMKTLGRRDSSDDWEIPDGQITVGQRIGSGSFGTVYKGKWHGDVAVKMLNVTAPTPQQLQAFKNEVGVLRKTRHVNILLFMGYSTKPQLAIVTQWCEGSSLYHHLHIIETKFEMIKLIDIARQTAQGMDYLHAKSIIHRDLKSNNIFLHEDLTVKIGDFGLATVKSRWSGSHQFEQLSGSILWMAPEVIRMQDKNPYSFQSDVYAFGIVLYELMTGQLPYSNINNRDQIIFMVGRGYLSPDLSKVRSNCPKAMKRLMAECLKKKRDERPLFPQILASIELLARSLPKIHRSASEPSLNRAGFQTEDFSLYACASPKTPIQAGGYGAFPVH
T2 sequence (P04049 307-648 Y340D/Y341D): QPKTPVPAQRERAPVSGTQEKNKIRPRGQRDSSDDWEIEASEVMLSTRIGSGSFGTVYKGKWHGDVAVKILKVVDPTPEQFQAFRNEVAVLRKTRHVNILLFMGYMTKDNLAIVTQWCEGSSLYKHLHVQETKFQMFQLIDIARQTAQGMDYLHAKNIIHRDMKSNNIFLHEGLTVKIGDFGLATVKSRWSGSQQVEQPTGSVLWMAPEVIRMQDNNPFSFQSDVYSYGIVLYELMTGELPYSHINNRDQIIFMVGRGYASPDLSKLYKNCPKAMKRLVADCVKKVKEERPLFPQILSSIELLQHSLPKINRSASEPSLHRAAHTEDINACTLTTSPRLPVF

Row | IC50 [1, 4] | IC50 ([1]; Table 3, read-out: BRAF) | IC50 [2, 5] | IC50 ([2]; Table 3, read-out: CRAF) | IC50 (MiaPaca-2 cells; [6]) | IC50 (MiaPaca-2 cells; [7]) | IC50 (HCT-116 cells; [8]) | IC50 (HCT-116 cells; [9]) | IC50 ([3]; Table 3) | IC50 ([1]; Table 4, read-out: BRAF) | IC50 ([2]; Table 4, read-out: CRAF) | SMILES | IC50 (HPAF-II cells; [10]) | IC50 (HPAF-II cells; [11]) | IC50 (Pa16c cells) | IC50 (MiaPaca-2 cells; [12]) | IC50 (HCT-116 cells; [13]) | IC50 (HPAF-II cells; [14]) | IC50 ([3]; Table 4)
1 | 1000 to 10000 nM | 1000 to 10000 nM | 1000 to 10000 nM | 1000 to 10000 nM | 100 to 500 nM | 100 to 500 nM | 100 to 500 nM | 100 to 500 nM | 100 to 500 nM |  |  | Cc1ccc(NC(=O)c2cc(C(F)(F)F)cnn2)cc1-c1nc(N[C@H](C)CO)cc(N2CCOCC2)n1 [Example 49] | 100 to 500 nM | 100 to 500 nM | 100 to 500 nM |  |  |  | 
2 | < 100 nM | < 100 nM | < 100 nM | < 100 nM | < 100 nM | < 100 nM | < 100 nM | < 100 nM | < 100 nM |  |  | Cc1ccc(NC(=O)c2cc(C(F)(F)F)cnn2)cc1-c1cc(N[C@H](C)CO)nc(N2CCOCC2)c1 [Example 19] | < 100 nM | < 100 nM | < 100 nM |  |  |  | 
3 |  |  |  |  |  |  |  |  |  |  |  | Cc1ccc(NC(=O)N2CC[C@@H](CC(F)(F)F)C2)cc1-c1cc(N[C@H](C)CO)nc(N2CCOCC2)c1 [Exarafenib, reference compound] |  |  |  | 1000 to 10000 nM | 500 to 1000 nM | 1000 to 10000 nM | 1000 to 10000 nM
4 | < 100 nM | < 100 nM | < 100 nM | < 100 nM | < 100 nM | < 100 nM | < 100 nM | < 100 nM | < 100 nM |  |  | Cc1ccc(NC(=O)c2cc(C3CC3)cnn2)cc1-c1cc(OCCO)nc(N2CCOCC2)c1 [Example 37] | < 100 nM | < 100 nM | < 100 nM |  |  |  | 
5 |  |  |  |  |  |  |  |  |  | < 100 nM | < 100 nM | Cc1ccc2c(Nc3cccc(Cl)c3F)nccc2c1NC(=O)c1csc2c(N)ncnc12 [Belvarafenib, reference compound] |  |  |  | 1000 to 10000 nM | 500 to 1000 nM | 1000 to 10000 nM | 1000 to 10000 nM
6 |  |  |  |  |  |  |  |  |  |  |  | C[C@@H](NC(=O)c1ncnc(N)c1Cl)c1ncc(C(=O)Nc2cc(C(F)(F)F)c(Cl)cn2)s1 [Tovorafenib, reference compound] |  |  |  | 1000 to 10000 nM | 1000 to 10000 nM | 1000 to 10000 nM | 1000 to 10000 nM
7 |  |  |  |  |  |  |  |  |  | < 100 nM | < 100 nM | Cc1ccc(NC(=O)c2ccnc(C(F)(F)F)c2)cc1-c1cc(OCCO)nc(N2CCOCC2)c1 [Naporafenib, reference compound] |  |  |  | 1000 to 10000 nM | 1000 to 10000 nM | 1000 to 10000 nM | 1000 to 10000 nM
8 | 100 to 500 nM |  | < 100 nM |  | 1000 to 10000 nM |  | 1000 to 10000 nM |  |  |  |  | Cc1ccc(NC(=O)c2cnc(C(C)C)nc2)cc1-c1cc(N[C@H](C)CO)nc(N2CCOCC2)c1 [Example 54] | 1000 to 10000 nM |  | 1000 to 10000 nM |  |  |  | 
9 | 100 to 500 nM |  | < 100 nM |  | 1000 to 10000 nM |  | 1000 to 10000 nM |  |  |  |  | Cc1ccc(NC(=O)c2cncc(C3CC3)n2)cc1-c1cc(N[C@H](C)CO)nc(N2CCOCC2)c1 [Example 62] | 1000 to 10000 nM |  | 1000 to 10000 nM |  |  |  | 
10 | 100 to 500 nM |  | 100 to 500 nM |  | 1000 to 10000 nM |  | 1000 to 10000 nM |  |  |  |  | Cc1ccc(NC(=O)c2cncc(Cl)n2)cc1-c1cc(N[C@H](C)CO)nc(N2CCOCC2)c1 [Example 9] | 500 to 1000 nM |  | 1000 to 10000 nM |  |  |  | 
11 | < 100 nM |  | < 100 nM |  | 100 to 500 nM |  | 100 to 500 nM |  |  |  |  | Cc1cc(-c2cc(NC(=O)c3cc(C4CCC4)cnn3)ccc2C)cc(N2CCOCC2)n1 [Example 42] | 100 to 500 nM |  | 100 to 500 nM |  |  |  | 
12 | 1000 to 10000 nM |  | 500 to 1000 nM |  | 500 to 1000 nM |  | 500 to 1000 nM |  |  |  |  | Cc1ccc(NC(=O)c2cc(C3CC3)cnn2)cc1-c1nc(N[C@H](C)CO)cc(N2CCOCC2)n1 [Example 45] | 500 to 1000 nM |  | 1000 to 10000 nM |  |  |  | 
13 | 1000 to 10000 nM |  | 100 to 500 nM |  | 1000 to 10000 nM |  | 500 to 1000 nM |  |  |  |  | Cc1ccc(NC(=O)c2cc(C(C)C)cnn2)cc1-c1ccnc(N2CCOCC2)n1 [Example 73] | 1000 to 10000 nM |  | 1000 to 10000 nM |  |  |  | 
